# Measured values taken from the supplement of paper PMC10307832.
# Legend:
# Experiment in all cases: relative viability (nuclei count vs DMSO), 5 days (fraction); higher = more cells survive
# [1] = test system: RERF-LC-KJ
# Summary of the method: (§1)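 Lung cancer cell lines in 1536-well plates were dosed by pin tool the day after seeding, either with one drug alone or with a fixed anchor-drug dose plus five library-drug doses (not always all listed) in √10 steps. After 5 days, cells were fixed and their nuclei stained in one step (final 0.05% Triton X-100, 1% formaldehyde, 1 ug/ml Hoechst), then counted on 4× images. Relative viability is the nuclei count in treated wells divided by that in vehicle wells. Values are medians of duplicate plates.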
# [2] = test system: HCC-366
# Summary of the method: as §1
# [3] = test system: PC-3 [JPC-3]
# Summary of the method: as §1
# [4] = test system: LC-2-ad
# Summary of the method: as §1
# [5] = test system: NCI-H1755
# Summary of the method: as §1
# [6] = test system: SW 900
# Summary of the method: as §1
# [7] = test system: NCI-H1915
# Summary of the method: as §1
# [8] = test system: NCI-H1650
# Summary of the method: as §1
# [9] = test system: NCI-H1648
# Summary of the method: as §1
# [10] = test system: LU99A
# Summary of the method: as §1
# [11] = test system: NCI-H441
# Summary of the method: as §1
# [12] = test system: BEN
# Summary of the method: as §1
smiles,measurement,setting,value
C=C1C(=O)O[C@@H](CCCCCCCC)[C@@H]1C(=O)O [C-75] + O=C(CCCCCCC(=O)Nc1ccccc1)NO [Vorinostat] (partner 1 µM),relative viability,[1]; first compound 0.08 µM,0.713
same,relative viability,[1]; first compound 0.253 µM,0.801
same,relative viability,[1]; first compound 0.8 µM,0.687
same,relative viability,[1]; first compound 2.53 µM,0.69
same,relative viability,[1]; first compound 8 µM,0.71
same,relative viability,[2]; first compound 0.08 µM,0.409
same,relative viability,[2]; first compound 0.253 µM,0.399
same,relative viability,[2]; first compound 0.8 µM,0.256
same,relative viability,[2]; first compound 2.53 µM,0.269
same,relative viability,[2]; first compound 8 µM,0.301
same,relative viability,[3]; first compound 0.08 µM,0.837
same,relative viability,[3]; first compound 0.253 µM,0.819
same,relative viability,[3]; first compound 0.8 µM,0.415
same,relative viability,[3]; first compound 2.53 µM,0.583
same,relative viability,[3]; first compound 8 µM,0.764
same,relative viability,[4]; first compound 0.08 µM,0.72
same,relative viability,[4]; first compound 0.253 µM,0.717
same,relative viability,[4]; first compound 0.8 µM,0.681
same,relative viability,[4]; first compound 2.53 µM,0.689
same,relative viability,[4]; first compound 8 µM,0.666
same,relative viability,[5]; first compound 0.08 µM,0.732
same,relative viability,[5]; first compound 0.253 µM,0.868
same,relative viability,[5]; first compound 0.8 µM,0.692
same,relative viability,[5]; first compound 2.53 µM,0.774
same,relative viability,[5]; first compound 8 µM,0.732
same,relative viability,[6]; first compound 0.08 µM,0.669
same,relative viability,[6]; first compound 0.253 µM,0.824
same,relative viability,[6]; first compound 0.8 µM,0.47
same,relative viability,[6]; first compound 2.53 µM,0.395
same,relative viability,[6]; first compound 8 µM,0.49
same,relative viability,[7]; first compound 0.08 µM,0.506
same,relative viability,[7]; first compound 0.253 µM,0.548
same,relative viability,[7]; first compound 0.8 µM,0.526
same,relative viability,[7]; first compound 2.53 µM,0.475
same,relative viability,[7]; first compound 8 µM,0.536
same,relative viability,[8]; first compound 0.08 µM,0.597
same,relative viability,[8]; first compound 0.253 µM,0.751
same,relative viability,[8]; first compound 0.8 µM,0.665
same,relative viability,[8]; first compound 8 µM,0.463
same,relative viability,[9]; first compound 0.08 µM,0.571
same,relative viability,[9]; first compound 0.253 µM,1.1
same,relative viability,[9]; first compound 0.8 µM,0.283
same,relative viability,[9]; first compound 8 µM,0.216
same,relative viability,[10]; first compound 0.08 µM,0.476
same,relative viability,[10]; first compound 0.253 µM,0.549
same,relative viability,[10]; first compound 0.8 µM,0.413
same,relative viability,[10]; first compound 2.53 µM,0.552
same,relative viability,[10]; first compound 8 µM,0.495
same,relative viability,[11]; first compound 0.08 µM,0.82
same,relative viability,[11]; first compound 0.253 µM,0.885
same,relative viability,[11]; first compound 0.8 µM,0.764
same,relative viability,[11]; first compound 8 µM,0.568
same,relative viability,[12]; first compound 0.08 µM,0.642
same,relative viability,[12]; first compound 0.253 µM,0.574
same,relative viability,[12]; first compound 0.8 µM,0.524
same,relative viability,[12]; first compound 2.53 µM,0.647
same,relative viability,[12]; first compound 8 µM,0.606
